For series [1], the system named is retinal ganglion cell axons. Briefly: Protection of retinal ganglion cell axons from degeneration following optic nerve transection (Table V). The class given is in vivo. The conditions noted are these: ± SEM. The text has this: Efficacy of representative compounds from different immunophilin ligand series in protecting retinal ganglion cell axons from degeneration following optic nerve transection is set forth in Table V.

A further series addresses FKBP12 (Homo sapiens, UniProt P62942). The series can be described thus: Ki test procedure: inhibition of peptidyl-prolyl isomerase (rotamase) activity, chymotrypsin-coupled assay. The conditions noted are these: Table V comments; read-out: Ki rotomase. The class given is biochemical. The source says:
The inhibition of the prolyl peptidyl cis-trans isomerase activity of FKBP may be measured as an indicator of this affinity. Inhibition of the peptidyl-prolyl isomerase (rotamase) activity of the compounds used in the inventive methods and pharmaceutical compositions can be evaluated by known methods described in the literature (Harding et al., Nature, 1989, 341:758-760; Holt et al. J. Am. Chem. Soc., 115:9923-9938). […] The inhibition of this reaction caused by the addition of different concentrations of inhibitor is determined, and the data is analyzed as a change in first-order rate constant as a function of inhibitor concentration to yield the apparent Ki values. […] The reaction is initiated by the addition of […] of substrate (succinyl-[…]-nitroanilide, 5 mg/mL in 2.35 mM LiCl in trifluoroethanol). The absorbance at 390 nm versus time is monitored for 90 seconds using a spectrophotometer and the rate constants are determined from the absorbance versus time data files.

The subject of the next series is retina. Briefly: Streptozotocin induced diabetes: retinal neovascularization and neuron loss (FIG. 9). The class given is in vivo.
A short description of series [2]: Peripheral sensory neuropathy in streptozotocin-induced diabetic rat, hot plate and tail flick (Example 18). The class given is in vivo, Wistar rats. Particulars: lesioned animals treated for 6 weeks at 10 mg/kg s.c. As to the method:
The procedure involved using Male Wistar rats which were given a single injection of streptozotocin (65 mg/kg i.v.). Blood glucose levels were determined weekly for the first three weeks and on the last week of the experiment. Animals were evaluated weekly for signs of sensory neuropathy using the conventional hot plate and tail flick apparatus test procedures.

Series [3] has as its system retinal ganglion cells. The series can be described thus: Retinal ganglion cell survival and axonal dying back following optic nerve transection (Example 17). The class given is in vivo, Sprague Dawley rats. Particulars: GPI-1046 10 mg/kg/day s.c. for 28 days. The text has this: Transection of the mammalian optic nerve results in a brief period of abortive regeneration, but the majority of axotomized neurons die and the axons from many persisting ganglion cells die back beyond the optic nerve head.

The nature of series [4]: Morris watermaze spatial learning and memory in aged rodents (Example 19). The class given is in vivo, C57BL/6N-Nia mice. Particulars: aged impaired mice, daily 10 mg/kg GPI-1046, retention testing after 3 weeks of dosing; listed as GPT-1046, 10 mg/kg. The source says: In all of these tasks, a proportion of aged rats or mice perform as well as the vast majority of young control animals, while other animals display severe impairments in memory function compared to young animals. […] Specifically, rodent spatial learning and memory decline during aging has been accepted by many investigators as an intriguing correlative animal model of human senile dementia. Cholinergic function in the hippocampus has been extensively studied as a component of spatial learning in rodents, and declining hippocampal cholinergic function has been noted in parallel with the development of learning and memory impairments. […] Also, reports on age-related deficits of hippocampal long-term potentiation (LTP)-induction, a reduction in theta rhythm frequency, a loss of experience-dependent plasticity of hippocampal place-units, and reductions in hippocampal protein kinase C are in keeping with the concept that no single underlying pathology can be identified as the cause of age-related behavioral impairment in rodents. However, the various experimental therapeutic approaches that have been undertaken to improve memory function in aged rodents have been somewhat slanted towards the cholinergic hypothesis. The Morris watermaze is widely used for assessing spatial memory formation and retention in experimental animals. […]

The subject of series [5] is retinal ganglion cells and optic nerve axons. Briefly: In vivo retinal ganglion cell and optic nerve axon tests after optic nerve transection (Example 6, Table 1). The conditions noted are these: for Proximal optic nerve myelin basic protein Density: SEM, % areal coverage of optic nerve cross section; for increased ON axon density: adjusted for optic nerve diameter; for Distal optic nerve stump shrinkage: cross sectional area compared to sham control; for Distal optic nerve myelin basic protein Density: cross sectional area multiplied by myelin density. Also noted: species or system Sprague Dawley rats. The text has this: All eyes and optic nerves stumps were removed.

Series [6] relates to retinal ganglion cells. Briefly: Retinal ischemia: retinal ganglion cell, optic nerve axon and myelin degeneration (FIGS. 1, 2). The class given is in vivo, rats. The source says: Retinal ganglion cells were retrogradely labeled in adult rats by bilateral injection of fluorogold in their lateral geniculate nuclei. Labeled ganglion cells in the normal rat retina appear as white profiles against the dark background (FIG. 1A). Complete retinal ischemia was produced by infusing normal saline solution into the retinal vitreous cavity of each eye until the intraocular pressure exceeded arterial blood pressure. 28 days after the ischemic episode extensive degeneration of retinal ganglion cell was evidenced by massive reduction in the density of fluorogold labeled cells (FIG. 1B). […] FIG. 2. […] Optic nerves from vehicle treated cases examined 28 days after a 1 hour retinal ischemic episode are characterized by a decreased density of optic nerve axons and the appearance of numerous degenerating myelin figures (bright white filled circles). […] FIG. 3. […] Few spared fluorogold pre labeled ganglion cells are present in vehicle treated cases (large white figures) among a population of small microglia that digest the debris of the degenerating cells and take up the fluorogold label (FIG. 3A). […] FIG. 4. […] 90 days after transection few ganglion cell axons remain within the optic nerve (FIG. 4B), representing only 5.6% of the normal population. The loss of axons reflects both the death of retinal ganglion cells and the regression or “dying back” of the axons of ˜70% of the small surviving ganglion cell population into the retina itself (Table 1). […] FIG. 5. […] FIG. 6. […] 90 days after transection extensive degeneration of myelin is evident in vehicle treated cases, characterized by the loss of fascicular organization and the appearance of numerous large dense degenerating myelin figures (FIG. 6B, upper right). […] FIG. 7. FKBP-12 immunohistochemistry labels oligodendroglia (large dark cells with fibrous processes), the cells which produce myelin, located between the fascicles of optic nerve fibers, and also some optic nerve axons. FIG. 8. […]

Series [7] is described as follows: Clearance (Table V comments). The class given is in vitro ADME.

“Also recorded” adds a separate entry of the source.

Experimental findings from US7410995B1, “N-linked sulfonamide of heterocyclic thioesters for vision and memory disorders” (GPI Nil Holdings Inc., priority 1998, dated 2008) are described below.

Sequence of FKBP12 (P62942 whole entry, species assumed): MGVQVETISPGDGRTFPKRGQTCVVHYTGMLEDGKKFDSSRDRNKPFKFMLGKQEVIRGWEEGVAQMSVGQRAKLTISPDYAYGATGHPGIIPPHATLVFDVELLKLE

Regarding `CCC(C)(C)C(=O)C(=O)N1CCC[C@H]1C(=O)SCCC(c1ccccc1)c1ccccc1` [M], the “RT 97 RGC axon density 14 days after ON transection” value (from here on “RT 97 RGC axon density 14 days”) in [1] is −6.3% ± 3.9% SEM.

Regarding `O=C(SCCCc1ccccc1)[C@@H]1CCCN1S(=O)(=O)Cc1ccccc1` [C], in series [1], the “RT 97 RGC axon density 14 days” value is reported as 60.4% ± 3.1% SEM.

Consider `CCC(C)(C)C(=O)C(=O)N1CCCC[C@H]1C(N)=O` [H], for which, in series [1], the “RT 97 RGC axon density 14 days” value is reported as 30.3% ± 8.0% SEM.

For the compound `CCC(C)(C)C(=O)C(=O)N1CCC[C@H]1C(=O)CCCCc1cccnc1` [J], the “RT 97 RGC axon density 14 days” value in [1] is 15.8% ± 4.8% SEM.

For the compound `O=C(OCCCc1cccnc1)[C@@H]1CCCN1C(=S)NC1CCCCC1` [I], in series [1], the “RT 97 RGC axon density 14 days” value is listed as 23.8% ± 5.3% SEM.

For the compound `CCC(C)(C)C(=O)C(=O)N1CCCC[C@H]1C(=O)O` [G], the “RT 97 RGC axon density 14 days” value in [1] is recorded as 34.0% ± 4.8% SEM.

`CCC(C)(C)C(=O)C(=O)N1CCC[C@H]1C(=O)O` [L]: in series [1], the “RT 97 RGC axon density 14 days” value is reported as 7.8% ± 3.0% SEM. Further, at FKBP12, the inhibition constant (Ki) was more than 7740 nM.

For `CCC(C)(C)C(=O)C(=O)N1CCS[C@@H]1C(=O)OCCCc1cccnc1` [F], the “RT 97 RGC axon density 14 days” value in series [1] is reported as 55.1% ± 5.9% SEM.

With `CCC(C)(C)C(=O)C(=O)N1CCC[C@H]1C(=O)OCCCc1cccnc1` [GPI 1046, 3-(3-pyridyl)-1-propyl (2s)-1-(3,3-dimethyl-1,2-dioxopentyl)-2-pyrrolidinecarboxylate], the “loss of neurons in the INL and GCL” value in the series with retina (28 day GPI 1046 treatment beginning 8 weeks after onset of diabetes, compared to streptozotocin/vehicle) is “protects neurons in the inner nuclear layer (INL) and ganglion cell layer (GCL) from degeneration”. Moreover, the “neovascularization in the retina (PR, ONL, OPL, INL)” value with retina (28 day GPI 1046 treatment beginning 8 weeks after onset of streptozotocin induced diabetes) is given as “reduced neovascularization; also recorded: decreases the extent of neovascularization”. Further, in series [2], the “latency, hot plate and tail flick” value is “improvement in latency”. Also, the “axons of protected neurons in the proximal stump (RT97)” value in the series with retinal ganglion cells [3] (90 days after transection) is reported as “preserved the axons of virtually all protected neurons”. The “ganglion cell population spared” value in the series on retinal ganglion cells [3] (sacrificed 90 days after transection) stood at 25%. In addition, the “spatial memory performance (swim distance), retention testing” value in series [4] is reported as “no longer any statistically significant difference”. Besides, in series [5] (GPI 1046 for the first 14 days after transection, proximal stump), the “quantitative recovery in myelin density” value is reported as 1.60. The “myelin levels, distal stump” value in series [5] (GPI 1046 through the first 28 days after transection) is reported as ~99 % of normal levels. Moreover, in series [5] (ONT/14 days GPI 1046), the “Proximal optic nerve myelin basic protein Density” value is given as “did not alter the pattern of myelin degeneration”, the “increased ON axon density” value is 1.5 X, the “Distal optic nerve stump shrinkage” value is listed as “did not protect against shrinkage of the distal stump” and the “Distal optic nerve myelin basic protein Density” value is on record as “slightly increase the density of myelin”. Besides, in series [5] (ONT/28 days GPI 1046), the “Proximal optic nerve myelin basic protein Density” value was “prevents myelin degeneration in the proximal stump”, the “increased ON axon density” value was determined as 5.0 X, the “Distal optic nerve stump shrinkage” value was “prevented cross sectional shrinkage of the distal stump” and the “Distal optic nerve myelin basic protein Density” value is “prevents myelin degeneration in the distal stump”. In addition, the “protection of retinal ganglion cells (fluorogold labeled) against degeneration” value in the series on retinal ganglion cells [6] (GPI 1046 10 mg/kg s.c. 1 hour prior to ischemia and 10 mg/kg/day for next four days, 28 days after ischemia) was “noticeable protection of a large proportion of the vulnerable ganglion cell population; also recorded: protects retinal ganglion cells against degeneration”. Further, in the series with retinal ganglion cells [6] (same retinal ischemia cases, 28 days after 1 hour ischemic episode), the “density of degenerating myelin figures” value is on record as “dramatically decreased”. For the same compound, the “degeneration of optic nerve axons” value with retinal ganglion cells [6] (same retinal ischemia cases, 28 days after 1 hour ischemic episode, toluidine blue staining) was “protected the majority of optic nerve axons from degeneration; also recorded: prevents degeneration of optic nerve axons and myelin”.

In series [7], `CCC(C)(C)C(=O)C(=O)N1CCCCC1C(=O)OC(CCc1ccccc1)CCc1ccccc1` (centres unmarked) [E] yielded a Clearance of 41.8 µL/min.

Take “3-(3-pyridyl)-1-propyl (2s)-1-(3,3-dimethyl-1,2-dioxopentyl)-2-pyrrolidinecarboxylate [GPI 1046]”: the “RT 97 RGC axon density 14 days” value in [1] is on record as 60.5% ± 3.9 SEM. The same compound showed a Clearance in series [7] of 3.5 µL/min. The Ki at FKBP12 was found to be 7.5 nM.

With `O=C(SCCCc1ccccc1)[C@@H]1CCCN1C(=O)NC12CCC(CC1)C2` [B], in series [1], the “RT 97 RGC axon density 14 days” value was 100.0% ± 5.2% SEM. In addition, the Ki on FKBP12 amounted to 149 nM.

Consider `CCC(C)(C)C(=O)C(=O)N1CCCC[C@H]1C(=O)SCCC(c1ccccc1)c1ccccc1` [Compound K], for which the “RT 97 RGC axon density 14 days” value in series [1] is on record as 13.0% ± 4.2% SEM.

The Ki is the dissociation constant of the complex between target and ligand, obtained from inhibition or displacement.
